Data from patent US20110118337A1, “Method of Using Compositions Comprising MIR-192 and/or MIR-215 for the Treatment of Cancer” (Merck Sharp & Dohme Corp., priority 2008, published 2011).

Assays:
HCT116 DICER^ex5 cells = experiment: Gene expression profiling (Agilent 44K microarray) after transfection of miR-192/miR-215 duplex mimetics; format: cell-based, human; settings: 24 hr; 10 nM; vs mock-transfected
Experimental: Synthetic duplex mimetics of miR-192 and miR-215 (sequences shown in TABLE 1) or a control target Luciferase siRNA (Luc), shown in TABLE 1, were transfected (10 nM final concentration) into HCT116 DICER^ex5, a human colorectal cancer cell line with hypomorphic DICER function (Cummins, J. M., et al., PNAS 103:3687-3692 (2006)). The transfections were carried out using Lipofectamine RNAiMax (Invitrogen) per the manufacturer's instructions. At 10 and 24 hours post-transfection, total RNA was extracted and gene expression profiling was carried out with the Agilent 44K microarray in comparison to RNA isolated from mock-transfected HCT116DICER^ex5 cells. Microarray analysis was carried out as described in Linsley, P. S., et al., Mol Cell Biol 27:2240-2252 (2007). Gene expression data analysis was done either with the Rosetta Resolver gene expression analysis software (Version 7.1 Rosetta Biosoftware).

HCT116DICER^ex5 cells = experiment: Transfection of siRNA pools (G1 or G2 gene set) at suboptimal levels, cell cycle FACS analysis (nocodazole or aphidicolin); format: cell-based, human; settings: 10 nM; for % G1 / % G2: 66 hours post transfection
Experimental: […] At 48 hours post-transfection into HCT116DICER^ex5 cells, the cells were treated with nocodazole for an additional 18 hours prior to FACS analysis.
[…] At 48 hours post-transfection into HCT116DICER^ex5 cells, the cells were treated with aphidicolin for an additional 18 hours prior to FACS analysis.

[1] = tested on: miR-192 target transcripts; experiment: Down-regulation of miR-192 target transcripts; format: cell-based

miR-192: Synthetic duplex mimetic of miR-192, guide CUGACCUAUGAAUUGACAGCC (SEQ ID NO:1), passenger SEQ ID NO:7 (sense CUGUCAAUUCAUCGGUCUGAU; listed as RNA, chemistry not given here; listed as Homo sapiens)
CDC73 transcript fold change (HCT116 DICER^ex5 cells): −1.17 fold change
CRK transcript fold change (HCT116 DICER^ex5 cells): −1.44 fold change
CTCF transcript fold change (HCT116 DICER^ex5 cells): −1.78 fold change
CUL5 transcript fold change (HCT116 DICER^ex5 cells): −1.35 fold change
DBF4B transcript fold change (HCT116 DICER^ex5 cells): −1.33 fold change
DEK transcript fold change (HCT116 DICER^ex5 cells): −1.47 fold change
DLG5 transcript fold change (HCT116 DICER^ex5 cells): −2.22 fold change
DTL transcript fold change (HCT116 DICER^ex5 cells): −1.38 fold change
EMP1 transcript fold change (HCT116 DICER^ex5 cells): −1.66 fold change
ERCC3 transcript fold change (HCT116 DICER^ex5 cells): −1.6 fold change
EXTL2 transcript fold change (HCT116 DICER^ex5 cells): −1.5 fold change
FGF2 transcript fold change (HCT116 DICER^ex5 cells): −1.83 fold change
HOXA10 transcript fold change (HCT116 DICER^ex5 cells): −2.3 fold change
HRH1 transcript fold change (HCT116 DICER^ex5 cells): −1.77 fold change
KIF14 transcript fold change (HCT116 DICER^ex5 cells): −1.42 fold change
KIF23 transcript fold change (HCT116 DICER^ex5 cells): −1.34 fold change
LMNB2 transcript fold change (HCT116 DICER^ex5 cells): −1.82 fold change
MACF1 transcript fold change (HCT116 DICER^ex5 cells): −1.64 fold change
MAD2L transcript fold change (HCT116 DICER^ex5 cells): −1.53 fold change
MCM3 transcript fold change (HCT116 DICER^ex5 cells): −1.91 fold change
MCM6 transcript fold change (HCT116 DICER^ex5 cells): −1.33 fold change
MCM10 transcript fold change (HCT116 DICER^ex5 cells): −2.37 fold change
MIS12 transcript fold change (HCT116 DICER^ex5 cells): −1.73 fold change
MKI67 transcript fold change (HCT116 DICER^ex5 cells): −1.4 fold change
MPHOSPH1 transcript fold change (HCT116 DICER^ex5 cells): −1.87 fold change
MTSS1 transcript fold change (HCT116 DICER^ex5 cells): −1.47 fold change
NBN transcript fold change (HCT116 DICER^ex5 cells): −1.27 fold change
NCAPH transcript fold change (HCT116 DICER^ex5 cells): −1.32 fold change
NEK1 transcript fold change (HCT116 DICER^ex5 cells): −1.47 fold change
NFIB transcript fold change (HCT116 DICER^ex5 cells): 1.82 fold change
NFYA transcript fold change (HCT116 DICER^ex5 cells): −1.35 fold change
NIN transcript fold change (HCT116 DICER^ex5 cells): 1.38 fold change
PAFAH1B1 transcript fold change (HCT116 DICER^ex5 cells): −2.22 fold change
PAPD5 transcript fold change (HCT116 DICER^ex5 cells): −1.44 fold change
PFTK1 transcript fold change (HCT116 DICER^ex5 cells): −1.33 fold change
PIM1 transcript fold change (HCT116 DICER^ex5 cells): −1.73 fold change
PLAU transcript fold change (HCT116 DICER^ex5 cells): −1.95 fold change
PLS3 transcript fold change (HCT116 DICER^ex5 cells): −1.57 fold change
POLQ transcript fold change (HCT116 DICER^ex5 cells): −1.18 fold change
POLS transcript fold change (HCT116 DICER^ex5 cells): −1.39 fold change
PPP1CA transcript fold change (HCT116 DICER^ex5 cells): −2.18 fold change
PRPF38A transcript fold change (HCT116 DICER^ex5 cells): −1.17 fold change
RACGAP1 transcript fold change (HCT116 DICER^ex5 cells): −1.9 fold change
RAD1 transcript fold change (HCT116 DICER^ex5 cells): −1.37 fold change
RAD21 transcript fold change (HCT116 DICER^ex5 cells): −1.36 fold change
RAD51 transcript fold change (HCT116 DICER^ex5 cells): −1.23 fold change
RAP1GAP transcript fold change (HCT116 DICER^ex5 cells): −1.43 fold change
RB1 transcript fold change (HCT116 DICER^ex5 cells): −1.45 fold change
SEPT10 transcript fold change (HCT116 DICER^ex5 cells): −1.98 fold change
SERTAD2 transcript fold change (HCT116 DICER^ex5 cells): −1.31 fold change
SH3BP4 transcript fold change (HCT116 DICER^ex5 cells): −1.9 fold change
SMARCB1 transcript fold change (HCT116 DICER^ex5 cells): −1.3 fold change
TDG transcript fold change (HCT116 DICER^ex5 cells): −1.52 fold change
TDP1 transcript fold change (HCT116 DICER^ex5 cells): −1.66 fold change
TOP1 transcript fold change (HCT116 DICER^ex5 cells): −1.66 fold change
TUBGCP3 transcript fold change (HCT116 DICER^ex5 cells): −1.52 fold change
USP1 transcript fold change (HCT116 DICER^ex5 cells): −1.35 fold change
UVRAG transcript fold change (HCT116 DICER^ex5 cells): −1.38 fold change
% G1 (HCT116DICER^ex5 cells; after aphidicolin treatment): 50.4%
% G2 (HCT116DICER^ex5 cells; after aphidicolin treatment): 44.7%
G2 arrest phenotype (HCT116DICER^ex5 cells; aphidicolin): induced a G2-arrest phenotype
G1 arrest phenotype (HCT116DICER^ex5 cells; nocodazole): induced a G1-arrest phenotype
% G1 (HCT116DICER^ex5 cells; nocodazole): 43.9%
% G2 (HCT116DICER^ex5 cells; nocodazole): 53.6%
down-regulation of target transcripts [1]: 30-40%
